The values that follow come from patent publication US20220088102A1, “CROTON LECHLERI COMPOSITIONS AND THEIR USE IN THE TREATMENT OF CYSTIC FIBROSIS” (priority 2020, published 2022).

The structures appear in SMILES notation.

Data set [1] deals with DNA of the cells. Particulars: Chen 1994, cited from earlier work.
Data set [2] can be described thus: In vitro Permeation Test (IVPT), Franz diffusion cell, Strat-M membranes. From the text:
All reference to skin includes references to epithelial skin and epithelial layer of the lungs, nose, mouth and throat. IVPT is a flux measurement that is common to those skilled in the art to evaluate topical drugs inclusive to topical delivery to the lungs, nose, mouth and throat.

The test system of data set [3] is wound healing. Particulars: in vivo in rats, Pieters et al 1995; cited from earlier work.

Regarding `Oc1cc(O)c2c(c1)O[C@H](c1cc(O)c(O)c(O)c1)[C@@H](O)C2` [Gallocatechin, gallocatechin], the “effect on cell proliferation” value in data set [1] was “slightly stimulating to cell proliferation”. In addition, the “Flux (J)” value in data set [2] (component permeating from AB-101 100% Lot 1) was 18.25 ug/cm^2/hr; in data set [2] (component permeating from AB-101 100% Lot X), 4.33 ug/cm^2/hr.
On to `COc1ccc([C@H]2Oc3c(OC)cc(CCCO)cc3[C@@H]2CO)cc1OC` [dimethylcedrusin, 3′,4-0-dimethylcedrusin], for which, in data set [3], the wound healing activity entry is listed as “improved wound healing in vivo”. Moreover, in data set [1] (in the Ecuadorian sap), the healing effects entry was “showed little healing effects”.
